Publication PMC4119598 (Journal of natural products, 2013)

Assays:
P. berghei LS parasites = test: Immunofluorescence analysis; format: cell-based, Plasmodium berghei; conditions: 10 μM, 48 h post-infection
MtFabI = MtFabI (Mycobacterium tuberculosis, UniProt P9WGR1); test: FabI enzyme inhibition assay MtFabI; format: biochemical, M. tuberculosis
[1] = test system: fabp10a:DsRed2 zebrafish larvae; test: In vivo hepatotoxicity in fabp10a:DsRed2 zebrafish larvae; parameters: species or system zebrafish (Brachydanio rerio); conditions: for liver phenotype (Figure 3): 6 dpf after 3 days of exposure at MTC (60.2 μM of 1, 15.5 μM of 2, 0.3 μM of 4)
BS of Plasmodium = conditions: read-out: BS IC50 (reported); cited from earlier work

Chain of MtFabI (P9WGR1 whole entry, looked up): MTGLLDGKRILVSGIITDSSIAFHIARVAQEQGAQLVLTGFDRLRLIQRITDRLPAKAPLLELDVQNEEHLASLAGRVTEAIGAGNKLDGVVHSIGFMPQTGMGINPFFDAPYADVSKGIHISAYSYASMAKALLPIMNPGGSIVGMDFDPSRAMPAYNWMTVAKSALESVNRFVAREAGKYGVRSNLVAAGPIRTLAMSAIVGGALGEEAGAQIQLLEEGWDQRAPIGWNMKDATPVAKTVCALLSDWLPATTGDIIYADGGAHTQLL

**Q.** With `COc1cc(C)c(C(=O)Oc2cc(C)c(C(=O)O)c(O)c2)c(O)c1` [compound 1, evernic acid] as the compound, how does the “effect on size of LS parasites (IFA)” value (P. berghei LS parasites) read?
**A.** Its value is “no effect”.

**Q.** And the IC50 (MtFabI)?
**A.** Its IC50 is greater than 200 µM.

**Q.** What about the “liver phenotype (Figure 3)” value [1] of the same compound?
**A.** Its value is “reduced liver size”.

**Q.** Which “effect on size of LS parasites (IFA)” value (P. berghei LS parasites) does the source give for `COC(=O)/C(=C1/OC(=O)C(c2ccccc2)=C1O)c1ccccc1` [compound 2, vulpic acid] here?
**A.** Its value is “decrease in the size of parasites”.

**Q.** And the IC50 (MtFabI)?
**A.** Its IC50 is greater than 200 µM.

**Q.** What about the “liver phenotype (Figure 3)” value [1] of the same compound?
**A.** The value was “enlarged liver”.

**Q.** With `COc1cc(C(=O)O)c2c(c1C)OC(=O)c1c(C)cc(O)c(C=O)c1O2` [compound 3, psoromic acid] as the compound, how does the “effect on size of LS parasites (IFA)” value (P. berghei LS parasites) read?
**A.** The value was “no effect”.

**Q.** What about the IC50 (MtFabI) of the same compound?
**A.** Its IC50 is greater than 200 µM.

**Q.** With `CC(=O)C1=C(O)C=C2Oc3c(C(C)=O)c(O)c(C)c(O)c3[C@@]2(C)C1=O` [compound 4, (+)-usnic acid] as the compound, how does the “effect on size of LS parasites (IFA)” value (P. berghei LS parasites) read?
**A.** Its value is “decrease in the size of parasites”.

**Q.** And the “liver phenotype (Figure 3)” value [1]?
**A.** The value was “liver with normal shape and size”.

**Q.** What about the “hepatotoxicity in zebrafish larvae” value ([1]; highest concentrations tested, up to and including MTC) of the same compound?
**A.** The value was “no hepatotoxicity was observed”.

**Q.** Which IC50 (BS of Plasmodium) does the source give for `COc1cc(NC(C)CCCN)c2ncccc2c1` (stereo not drawn) [primaquine] here?
**A.** Its IC50 is 1400 to 3300 nM.
